In one test the target is HDAC1 (Homo sapiens (Human), UniProt Q13547). In words: HDAC enzyme assay, HDAC1. It is filed as biochemical. As for the experimental part: (§1) Compounds for testing were diluted in DMSO to 50 fold the final concentration and a ten point three fold dilution series was made. The compounds were diluted in assay buffer (50 mM HEPES, pH 7.4, 100 mM KCl, 0.001% Tween-20, 0.05% BSA, 20 μM TCEP) to 6 fold their final concentration. The HDAC enzymes (purchased from BPS Biosciences) were diluted to 1.5 fold their final concentration in assay buffer. The tripeptide substrate and trypsin at 0.05 μM final concentration were diluted in assay buffer at 6 fold their final concentration. The final enzyme concentrations used in these assays were 3.3 ng/ml (HDAC1), 0.2 ng/ml (HDAC2), 0.08 ng/ml (HDAC3) and 2 ng/ml (HDAC6). The final substrate concentrations used were 16 μM (HDAC1), 10 μM (HDAC2), 17 μM (HDAC3) and 14 μM (HDAC6).
(§2) Five μl of compounds and 20 μl of enzyme were added to wells of a black, opaque 384 well plate in duplicate. Enzyme and compound were incubated together at room temperature for 10 minutes. Five μ1 of substrate was added to each well, the plate was shaken for 60 seconds and placed into a Victor 2 microtiter plate reader. The development of fluorescence was monitored for 60 min and the linear rate of the reaction was calculated. The IC50 was determined using Graph Pad Prism by a four parameter curve fit.

A further test concerns the target HDAC2 (Homo sapiens (Human), UniProt Q92769). In words: HDAC enzyme assay, HDAC2. In kind it is biochemical. As for the experimental part:
as §1, §2

For the next test, the target named is HDAC3 (Homo sapiens (Human), UniProt O15379). In words: HDAC enzyme assay, HDAC3. It is filed as biochemical. As for the experimental part:
Compounds for testing were diluted in DMSO to 50 fold the final concentration and a ten point three fold dilution series was made. The compounds were diluted in assay buffer (50 mM HEPES, pH 7.4, 100 mM KCl, 0.001% Tween-20, 0.05% BSA, 20 μM TCEP) to 6 fold their final concentration. […] The tripeptide substrate and trypsin at 0.05 μM final concentration were diluted in assay buffer at 6 fold their final concentration. The final enzyme concentrations used in these assays were 3.3 ng/ml (HDAC1), 0.2 ng/ml (HDAC2), 0.08 ng/ml (HDAC3) and 2 ng/ml (HDAC6).
as §2

Test [1] has as its system BE(2)-C neuroblastoma cells. Put plainly: Neuroblastoma maturation gene expression, BE(2)-C. It is filed as cell-based. As for the experimental part:
(§3) The following is a quick summary of the HDAC neuroblastoma maturation experiments. Adherent cells were plated into 12- or 24-well plates at 10^6 cells/well and allowed to adhere for 2-4 hours. Compounds were dispensed in DMSO at the indicated concentrations using an automated liquid handling system (Tecan D300) and incubated for the indicated times at 37° C. with 5% CO2. Cells were harvested and RNA extracted using the Qiagen RNeasy Mini Kit according to manufacture protocols. The RNA was quantified and relative expression levels were assessed using the Applied Biosystems TaqMan RNA-to-Ct Kit according to manufacture protocols using the indicated TaqMan probes.
(§4) The protocol for the maturation experiments was as follows. The day before the experiment, the cells were fed in the flask by doubling the media. The cells were then harvested by adding non-enzymatic cell dissociation media and incubating at 37° C. for 15 minutes. The cells were transferred to a 50 ml tube and pipet to create a single-cell suspension. The cells were washed with PBS buffer. The cells were then resuspended in complete media at 5×10^5 cells per ml. Next, 2 ml of cells were transferred to 24- or 12-well plates. The treatment compounds were then dispensed into each well using the D300 liquid handler. The cells were then incubated for the indicated time at 37° C. The cells were harvested by scraping the cells and transferring to a 2 ml tube. The cells were spun to form a pellet. Next, RNA was extracted using the Qiagen RNeasy Mini kit according to manufacture protocols. The RNA concentration was recorded. The relative RNA levels were assessed using the Applied Biosystems TaqMan RNA-to-Ct kit according to manufacture protocols using the indicated Taqman probes.

For test [2], the system named is SH-SY5Y neuroblastoma cells. In words: Neuroblastoma maturation gene expression, SH-SY5Y. In kind it is cell-based. The following applies: 72 hours, 1 μM. As for the experimental part: as §3
as §4, with “The treatment compounds were then dispensed into each well using the D300 liquid handler. The cells were then incubated for the indicated time at 37° C. The cells were harvested by scraping the cells and transferring to a 2 ml tube. The cells were spun to form a pellet. Next, RNA was extracted using the Qiagen RNeasy Mini kit according to manufacture protocols.” left out

The test system of test [3] is SH-SY5Y neuroblastoma cells. Put plainly: Neuroblastoma cell cycle by flow cytometry, SH-SY5Y. In kind it is cell-based. As for the experimental part: The following is a quick summary of the neuroblastoma cell cycle experiments. Adherent cells were plated into 12-well plates at 10^6 cells/well and allowed to adhere for 2-4 hours. Compounds were dispensed in DMSO at the indicated concentrations using an automated liquid handling system (Tecan D300) and incubated for the indicated times at 37° C. with 5% CO2. Cells were harvested with enzyme-free cell disassociation solution and washed with buffered saline. Cells were fixed overnight with 100% ethanol. Cell cycle was assessed by flow cytometry using the Molecular Probes FxCycle PI/RNase Staining Solution kit according to manufacture protocols.
The protocol for the cell cycle experiments was as follows. The day before the experiment, the cells were fed in the flask by doubling the media. Then, the cells were harvested by adding non-enzymatic cell dissociation media and incubating at 37° C. for 15 minutes. Next, the cells were transferred to a 50 ml tube and pipet to create a single-cell suspension. The cells were then washed with PBS buffer. Then, the cells were resuspended in complete media at 5×10^5 cells per ml. Next, 2 ml of cells were transferred to 12-well plates. Then, the treatment compounds were dispensed into each well using the D300 liquid handler. The cells were incubated for the indicated time at 37° C. Then, the cells were harvested by adding 500 μl enzyme free cell dissociation solution and incubating at 37° C. for 15 minutes. Next, the cells were spun into a pellet and then washed with PBS. Then, 500 μl 100% EtOH was added and incubated at 4° C. overnight. Then, the cells were washed 3× with PBS. The cells were then resuspended in […] FxCycle PI/RNase solution, and incubated for 2-4 hours at room temperature. Finally, the cells were assayed by flow cytometry.
SH-SY5Y neuroblastoma cells were treated with varying concentrations of either Compound X or Y, and/or ATRA (all trans retinoic acid). […] In addition, the fold change of p21 was also calculated. […] The HDACi/ATRA combination effects were modest, with little difference compared to single agents.
(In general: Flow cytometry measures light scatter and fluorescence of single cells or particles in a stream.)

The subject of test [4] is SK-N-BE(2) or SH-SY5Y neuroblastoma cells. In words: Neuroblastoma differentiation index. It is filed as cell-based. On the procedure:
SK-N-BE(2) or SH-SY5Y neuroblastoma cells were treated with varying concentrations of either Compound X or Y, and/or ATRA (all trans retinoic acid). The differentiation index was measured.
SK-N-BE(2) or SH-SY5Y neuroblastoma cells were treated with varying concentrations of either Compound X or Y, and/or ATRA (all trans retinoic acid). The differentiation index was measured. As a control, SK-N-BE(2) or SH-SY5Y neuroblastoma cells were treated with varying concentrations of ATRA.

Test [5] deals with SK-N-BE(2) neuroblastoma cells. In words: Neuroblastoma cell cycle and p21, SK-N-BE(2). Particulars: 4 days. It is filed as cell-based. As for the experimental part:
SK-N-BE(2) neuroblastoma cells were treated with varying concentrations of either Compound X or Y, and/or ATRA (all trans retinoic acid). The percentage of the population of the cells at various stages of the cell cycle were measured after 4 days. In addition, the fold change of p21 was also calculated. […] The HDACi/ATRA combination effects were modest, with little difference compared to single agents.

The structures appear in SMILES notation.

One may read the IC50 as the concentration that inhibits the measured activity by half. Low values mean greater potency, high ones weaker potency.

Chain of HDAC1 (Q13547 whole entry): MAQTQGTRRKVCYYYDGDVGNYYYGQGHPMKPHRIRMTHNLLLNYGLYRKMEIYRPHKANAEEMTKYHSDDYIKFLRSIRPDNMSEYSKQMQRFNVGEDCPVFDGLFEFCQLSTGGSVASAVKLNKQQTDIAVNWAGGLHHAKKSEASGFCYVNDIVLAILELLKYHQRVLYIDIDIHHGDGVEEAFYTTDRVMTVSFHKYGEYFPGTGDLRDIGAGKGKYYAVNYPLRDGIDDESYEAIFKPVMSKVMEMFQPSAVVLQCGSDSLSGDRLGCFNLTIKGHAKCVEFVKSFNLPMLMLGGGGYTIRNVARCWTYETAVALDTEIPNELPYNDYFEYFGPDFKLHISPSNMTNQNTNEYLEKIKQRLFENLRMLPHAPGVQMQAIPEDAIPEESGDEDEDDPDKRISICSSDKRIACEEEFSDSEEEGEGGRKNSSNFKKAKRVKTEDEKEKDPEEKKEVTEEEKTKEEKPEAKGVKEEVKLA
Chain of HDAC3 (O15379 whole entry): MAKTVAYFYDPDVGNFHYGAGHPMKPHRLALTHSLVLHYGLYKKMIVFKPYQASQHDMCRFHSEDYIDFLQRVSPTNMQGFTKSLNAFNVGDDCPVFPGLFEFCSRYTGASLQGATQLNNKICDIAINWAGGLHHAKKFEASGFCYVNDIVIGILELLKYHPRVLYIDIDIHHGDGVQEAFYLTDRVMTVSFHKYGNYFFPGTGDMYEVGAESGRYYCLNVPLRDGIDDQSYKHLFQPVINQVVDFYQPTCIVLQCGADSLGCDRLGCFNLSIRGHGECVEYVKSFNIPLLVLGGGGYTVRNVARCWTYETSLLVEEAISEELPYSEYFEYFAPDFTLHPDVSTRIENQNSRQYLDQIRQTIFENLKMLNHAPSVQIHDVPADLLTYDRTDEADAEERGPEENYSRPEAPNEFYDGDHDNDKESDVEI
Chain of HDAC3 (Q9Y618 395-489 partner): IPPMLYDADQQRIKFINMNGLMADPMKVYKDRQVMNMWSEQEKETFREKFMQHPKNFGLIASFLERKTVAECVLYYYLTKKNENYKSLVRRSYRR
Chain of HDAC2 (Q92769 whole entry): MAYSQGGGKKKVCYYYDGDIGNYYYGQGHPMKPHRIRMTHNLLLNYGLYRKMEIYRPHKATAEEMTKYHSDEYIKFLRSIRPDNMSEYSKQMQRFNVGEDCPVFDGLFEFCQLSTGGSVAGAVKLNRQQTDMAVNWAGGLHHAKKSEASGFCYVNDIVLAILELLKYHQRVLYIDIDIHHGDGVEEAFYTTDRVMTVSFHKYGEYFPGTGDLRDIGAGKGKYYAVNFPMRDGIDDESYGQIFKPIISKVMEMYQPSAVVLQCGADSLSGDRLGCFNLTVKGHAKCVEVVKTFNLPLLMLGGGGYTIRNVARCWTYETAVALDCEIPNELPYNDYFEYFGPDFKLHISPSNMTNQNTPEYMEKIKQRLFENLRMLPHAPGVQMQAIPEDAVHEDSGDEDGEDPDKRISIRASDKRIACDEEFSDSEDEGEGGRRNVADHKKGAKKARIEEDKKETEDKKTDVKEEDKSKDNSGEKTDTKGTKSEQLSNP

For `Nc1ccc(-c2cccs2)cc1NC(=O)c1ccc2c(c1)cc(C1CC1)n2CCN1CCOCC1` [Compound X, N-(2-amino-5-(thiophen-2-yl)phenyl)-2-cyclopropyl-1-(2-morpholinoethyl)-1H-indole-5-carboxamide], the 50% inhibitory concentration (IC50) is 6 nM on HDAC1, 36 nM at HDAC2 and 445 nM against HDAC3. The “fold change of genes associated with maturation” value in test [1] (72 hours, 1 μM) was “alters genes associated with maturation”; in test [1] (4 days, 0.5, 1 and 3 μM), “alters genes associated with maturation”; in test [2], “alters genes associated with maturation”. In addition, the “percent of the cell population in G2, S, G1 and Sub G1 phase” value in test [3] (72 hours, 0.5, 2 and 5 μM (ATRA 1 μM)) is reported as “induced similar cell cycle changes in all treatment groups”. Besides, the “cell cycle stages and fold change of p21” value in test [3] (4 days) and in test [5] was “induced cell cycle arrest” throughout. Further, the “differentiation index, low-concentration ATRA” value in test [4] (0.25 μM ATRA, alone or with HDAC inhibitor) is “potentiated 0.25 μM ATRA”. Further, the differentiation index result in test [4] (varying concentrations, alone) is recorded as “induced an increase in the differentiation index”.

(Values after patent publication US9278963B2, “Pyrimidine hydroxy amide compounds as histone deacetylase inhibitors” (Acetylon Pharmaceuticals, Inc., priority 2013, dated 2016).)
